Experimental data: patent US10308644B2, “Heterocyclic compounds as immunomodulators” (Incyte Corporation, priority 2016, dated 2019)

Each compound was assayed against PD-1/PD-L1 (Homo sapiens (Human), UniProt Q9NZQ7) (assay: PD-1/PD-L1 Homogeneous Time-Resolved Fluorescence (HTRF) Binding Assay). Settings: recombinant human PD-1 (3 nM) and PD-L1 (10 nM), 25° C., PBS pH 7.4.
Summary of the method: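 Fc-tagged human PD-1 (25-167, 3 nM) and His-tagged PD-L1 (19-238, 10 nM) preincubated with inhibitor 40 min in PBS pH 7.4, 0.05% Tween-20, 0.1% BSA, 1% DMSO, 25 °C. Binding detected by HTRF (Eu anti-IgG/APC anti-His, 665/620 nm) after 60 min; IC50 from percent control activity.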

PD-1/PD-L1, sequence (Q9NZQ7 19-238): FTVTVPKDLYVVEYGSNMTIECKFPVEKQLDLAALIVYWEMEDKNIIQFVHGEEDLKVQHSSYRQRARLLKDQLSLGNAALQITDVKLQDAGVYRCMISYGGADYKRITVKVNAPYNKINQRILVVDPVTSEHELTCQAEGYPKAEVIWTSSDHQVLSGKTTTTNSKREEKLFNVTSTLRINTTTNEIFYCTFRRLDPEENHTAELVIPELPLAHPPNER

Compound	IC50 [nM]
Cc1c(Nc2nccc3c(CN4CC[C@H](O)C4)ccnc23)cccc1-c1cccc(-c2nc3cc(CN4CC[C@H](C(=O)O)C4)cc(C#N)c3o2)c1C [Example 144, (S)-1-((7-cyano-2-(3′-((4-(((S)-3-hydroxypyrrolidin-1-yl)methyl)-1,7-naphthyridin-8-yl)amino)-2,2′-dimethyl-[1,1′-biphenyl]-3-yl)benzo[d]oxazol-5-yl)methyl)pyrrolidine-3-carboxylic acid]	≤ 10
Cc1c(-c2nc3cc(CN4CC[C@@H](C(=O)O)C4)cc(Cl)c3o2)cccc1-c1cccc(Nc2nccc3cc(CN4CC[C@@H](O)C4)cnc23)c1Cl [Example 82, (R)-1-((7-chloro-2-(2′-chloro-3′-(3-(((R)-3-hydroxypyrrolidin-1-yl)methyl)-1,7-naphthyridin-8-ylamino)-2-methylbiphenyl-3-yl)benzo[d]oxazol-5-yl)methyl)pyrrolidine-3-carboxylic acid]	≤ 10
Cc1c(Nc2nccc3cc(CN[C@@H](C)CO)cnc23)cccc1-c1cccc(-c2nc3cc(CN4CC[C@@](C)(C(=O)O)C4)cc(C#N)c3o2)c1C [Example 195, (R)-1-((7-cyano-2-(3′-(3-(((S)-1-hydroxypropan-2-ylamino)methyl)-1,7-naphthyridin-8-ylamino)-2,2′-dimethylbiphenyl-3-yl)benzo[d]oxazol-5-yl)methyl)-3-methylpyrrolidine-3-carboxylic acid]	≤ 10
Cc1c(-c2nc3cc(CN4CC[C@H](C(=O)O)C4)cc(Cl)c3o2)cccc1-c1cccc(Nc2nccc3cc(CN4CC[C@@H](O)C4)cnc23)c1Cl [Example 81, (S)-1-((7-chloro-2-(2′-chloro-3′-(3-(((R)-3-hydroxypyrrolidin-1-yl)methyl)-1,7-naphthyridin-8-ylamino)-2-methylbiphenyl-3-yl)benzo[d]oxazol-5-yl)methyl)pyrrolidine-3-carboxylic acid]	≤ 10
Cc1c(-c2nc3cc(CN4CC[C@@](C)(C(=O)O)C4)cc(C#N)c3o2)cccc1-c1cccc(-c2nc3c(s2)CN(C(=O)CN(C)CC2CC2)C3)c1C [Example 219, (R)-1-((7-cyano-2-(3′-(5-(2-((cyclopropylmethyl) (methyl)amino)acetyl)-5,6-dihydro-4H-pyrrolo[3,4-d]thiazol-2-yl)-2,2′-dimethylbiphenyl-3-yl)benzo[d]oxazol-5-yl)methyl)-3-methylpyrrolidine-3-carboxylic acid]	≤ 10
Cc1c(Nc2nccc3cc(CN4CC[C@@H](O)C4)cnc23)cccc1-c1cccc(-c2nc3cc(CN[C@H]4CC[C@H](C(=O)O)C4)cc(C#N)c3o2)c1C [Example 182, (1S,3S)-3-((7-cyano-2-(3′-(3-(((R)-3-hydroxypyrrolidin-1-yl)methyl)-1,7-naphthyridin-8-ylamino)-2,2′-dimethylbiphenyl-3-yl)benzo [d]oxazol-5-yl)methylamino)cyclopentane carboxylic acid]	≤ 10
Cc1c(-c2nc3cc(CN4CC(C(=O)O)C4)cc(C#N)c3o2)cccc1-c1cccc(-c2nc3c(s2)CN(CCO)CC3)c1C [Example 68, 1-((7-cyano-2-(3′-(5-(2-hydroxyethyl)-4,5,6,7-tetrahydrothiazolo[5,4-c]pyridin-2-yl)-2,2′-dimethyl-[1,1′-biphenyl]-3-yl)benzo[d]oxazol-5-yl)methyl)azetidine-3-carboxylic acid]	≤ 10
Cc1c(Nc2nccc3cc(CN4CC[C@H](O)C4)cnc23)cccc1-c1cccc(-c2nc3cc(CN(C)CCC(=O)O)cc(Cl)c3o2)c1C [Example 21, (S)-3-(((7-chloro-2-(3′-(3-((3-hydroxypyrrolidin-1-yl)methyl)-1,7-naphthyridin-8-ylamino)-2,2′-dimethylbiphenyl-3-yl)benzo[d]oxazol-5-yl)methyl)(methyl)amino)propanoic acid]	≤ 10
